Values quoted from earlier work, collected in patent publication US20140171495A1, “STABLE PHARMACEUTICAL FORMULATION OF CABAZITAXEL” (Yung Shin Pharm.Ind. Co., Ltd., priority 2012, published 2014).

CO[C@H]1C(=O)[C@]2(C)[C@@H](OC)C[C@H]3OC[C@@]3(OC(C)=O)[C@H]2[C@H](OC(=O)c2ccccc2)[C@]2(O)C[C@H](OC(=O)[C@H](O)[C@@H](NC(=O)OC(C)(C)C)c3ccccc3)C(C)=C1C2(C)C [Cabazitaxel, (2α,5β,7β,10β,13α)-4-acetoxy-13-({(2R,3S)-3[(tertbutoxycarbonyl)amino]-2-hydroxy-3-phenylpropanoyl}oxy)-1-hydroxy-7,10-dimethoxy-9-oxo-5,20-epoxytax-11-en-2-yl benzoate-propan-2-one(1:1)]
solubility in alcohol (alcohol): soluble
solubility in water (water): practically insoluble
